Reference: US20240239861A1, “GLUCAGON-RECEPTOR SELECTIVE POLYPEPTIDES AND METHODS OF USE THEREOF” (i2O Therapeutics, Inc., priority 2016, published 2024)
Where a SMILES comes first, the peptide text is derived from it. [ ]: non-standard residue; d: D form. Aib = CC(C)(N)C(=O)O

Target: human GLP-1R (Homo sapiens, UniProt P43220)
Assay: Peptide-receptor mediated cAMP accumulation (LANCE Ultra cAMP) in CHO-K1 cells transfected with human GLP-1R
Assay type: cell-based
Conditions: hGLP1 pEC50 (cAMP mean (n = 3): 11 point curve starting at 1 nM, Table 3)

human GLP-1R, sequence (P43220 24-463): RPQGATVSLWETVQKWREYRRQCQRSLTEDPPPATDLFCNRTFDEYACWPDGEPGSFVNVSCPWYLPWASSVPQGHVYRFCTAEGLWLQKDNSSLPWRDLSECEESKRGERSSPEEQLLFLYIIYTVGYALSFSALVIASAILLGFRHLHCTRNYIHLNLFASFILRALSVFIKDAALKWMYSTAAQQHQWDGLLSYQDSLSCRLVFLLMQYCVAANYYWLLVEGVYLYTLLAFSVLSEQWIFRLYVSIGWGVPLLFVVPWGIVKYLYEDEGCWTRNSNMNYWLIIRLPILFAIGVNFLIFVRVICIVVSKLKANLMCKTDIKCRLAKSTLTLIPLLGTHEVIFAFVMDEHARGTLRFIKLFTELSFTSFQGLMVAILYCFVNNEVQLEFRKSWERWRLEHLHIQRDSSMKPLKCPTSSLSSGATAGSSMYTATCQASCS

Compound | EC50
CC(C)C[C@H](NC(=O)[C@H](Cc1ccc(O)cc1)NC(=O)[C@H](CCCCN)NC(=O)[C@H](CO)NC(=O)[C@H](Cc1ccc(O)cc1)NC(=O)[C@H](CC(=O)O)NC(=O)[C@H](CO)NC(=O)[C@@H](NC(=O)[C@H](Cc1ccccc1)NC(=O)[C@@H](NC(=O)CNC(=O)[C@H](Cc1c[nH]cn1)NC(=O)[C@H](CO)NC(=O)[C@@H](N)Cc1ccc(O)cc1)[C@@H](C)O)[C@@H](C)O)C(=O)N[C@@H](CC(=O)O)C(=O)NC(C)(C)C(=O)N[C@@H](CCCCN)C(=O)N[C@@H](CCCNC(=N)N)C(=O)N[C@@H](C)C(=O)N[C@@H](CCC(N)=O)C(=O)N[C@@H](CCC(=O)O)C(=O)N[C@@H](Cc1ccccc1)C(=O)N[C@H](C(=O)NC(C)(C)C(=O)N[C@@H](Cc1c[nH]c2ccccc12)C(=O)N[C@@H](CC(C)C)C(=O)N[C@@H](CCC(=O)O)C(=O)N[C@@H](CC(=O)O)C(=O)N[C@@H](CCC(=O)O)C(=O)N[C@@H](CCCCN)C(=O)N[C@@H](CO)C(=O)N[C@@H](CO)C(=O)NCC(=O)N[C@@H](CCCCN)C(=O)N1CCC[C@H]1C(=O)N1CCC[C@H]1C(=O)N1CCC[C@H]1C(=O)N[C@@H](CO)C(=O)O)C(C)C [Compound A87] (H-YSHGTFTSDYSKYLD[Aib]KRAQEFV[Aib]WLEDEKSSGKPPPS-OH; N-terminus assumed) | > 1 nM
CC(C)C[C@H](NC(=O)[C@H](Cc1ccc(O)cc1)NC(=O)[C@H](CCCCN)NC(=O)[C@H](CO)NC(=O)[C@H](Cc1ccc(O)cc1)NC(=O)[C@H](CC(=O)O)NC(=O)[C@H](CO)NC(=O)[C@@H](NC(=O)[C@H](Cc1ccccc1)NC(=O)[C@@H](NC(=O)CNC(=O)[C@H](Cc1c[nH]cn1)NC(=O)[C@H](CO)NC(=O)[C@@H](N)Cc1ccc(O)cc1)[C@@H](C)O)[C@@H](C)O)C(=O)N[C@@H](CC(=O)O)C(=O)NC(C)(C)C(=O)N[C@@H](CCCCN)C(=O)N[C@@H](CCCNC(=N)N)C(=O)N[C@@H](C)C(=O)N[C@@H](CCC(N)=O)C(=O)N[C@@H](CCC(=O)O)C(=O)N[C@@H](Cc1ccccc1)C(=O)N[C@H](C(=O)NC(C)(C)C(=O)N[C@@H](Cc1c[nH]c2ccccc12)C(=O)N[C@@H](CC(C)C)C(=O)N[C@@H](CCC(=O)O)C(=O)N[C@@H](CC(=O)O)C(=O)N[C@@H](CCC(=O)O)C(=O)N1CCC[C@H]1C(=O)N[C@@H](CO)C(=O)N[C@@H](CO)C(=O)NCC(=O)N[C@@H](CCCCN)C(=O)N[C@@H](CCCCN)C(=O)N1CCC[C@H]1C(=O)N1CCC[C@H]1C(=O)N[C@@H](CO)C(=O)O)C(C)C [Compound A88] (H-YSHGTFTSDYSKYLD[Aib]KRAQEFV[Aib]WLEDEPSSGKKPPS-OH) | > 1 nM

Continued, values first:

EC50 | Compound
> 1 nM | CC(C)C[C@H](NC(=O)[C@H](Cc1ccc(O)cc1)NC(=O)[C@H](CCCCN)NC(=O)[C@H](CO)NC(=O)[C@H](Cc1ccc(O)cc1)NC(=O)[C@H](CC(=O)O)NC(=O)[C@H](CO)NC(=O)[C@@H](NC(=O)[C@H](Cc1ccccc1)NC(=O)[C@@H](NC(=O)CNC(=O)[C@H](Cc1c[nH]cn1)NC(=O)[C@H](CO)NC(=O)[C@@H](N)Cc1ccc(O)cc1)[C@@H](C)O)[C@@H](C)O)C(=O)N[C@@H](CC(=O)O)C(=O)N[C@@H](C)C(=O)N[C@@H](C)C(=O)N[C@@H](CCCNC(=N)N)C(=O)N[C@@H](C)C(=O)N[C@@H](CCC(N)=O)C(=O)N[C@@H](CCC(=O)O)C(=O)N[C@@H](Cc1ccccc1)C(=O)N[C@H](C(=O)N[C@@H](CCCCN)C(=O)N[C@@H](Cc1c[nH]c2ccccc12)C(=O)N[C@@H](CC(C)C)C(=O)N[C@@H](CCC(=O)O)C(=O)N[C@@H](CC(=O)O)C(=O)N[C@@H](CCC(=O)O)C(=O)N1CCC[C@H]1C(=O)N[C@@H](CCCCN)C(=O)N[C@@H](CO)C(=O)N[C@@H](CCCCN)C(=O)N[C@@H](CO)C(=O)N1CCC[C@H]1C(=O)N1CCC[C@H]1C(=O)N1CCC[C@H]1C(=O)N[C@@H](CO)C(N)=O)C(C)C [Compound A80] (H-YSHGTFTSDYSKYLDAARAQEFVKWLEDEPKSKSPPPS-NH2; N-terminus assumed)
> 1 nM | CC(C)C[C@H](NC(=O)[C@H](Cc1ccc(O)cc1)NC(=O)[C@H](CCCCN)NC(=O)[C@H](CO)NC(=O)[C@H](Cc1ccc(O)cc1)NC(=O)[C@H](CC(=O)O)NC(=O)[C@H](CO)NC(=O)[C@@H](NC(=O)[C@H](Cc1ccccc1)NC(=O)[C@@H](NC(=O)CNC(=O)[C@H](Cc1c[nH]cn1)NC(=O)[C@H](CO)NC(=O)[C@@H](N)Cc1ccc(O)cc1)[C@@H](C)O)[C@@H](C)O)C(=O)N[C@@H](CC(=O)O)C(=O)NC(C)(C)C(=O)N[C@@H](CCCCN)C(=O)N[C@@H](CCCNC(=N)N)C(=O)N[C@@H](C)C(=O)N[C@@H](CCC(N)=O)C(=O)N[C@@H](CCC(=O)O)C(=O)N[C@@H](Cc1ccccc1)C(=O)N[C@H](C(=O)NC(C)(C)C(=O)N[C@@H](Cc1c[nH]c2ccccc12)C(=O)N[C@@H](CC(C)C)C(=O)N[C@@H](CCC(=O)O)C(=O)N[C@@H](CC(=O)O)C(=O)N[C@@H](CCC(=O)O)C(=O)N1CCC[C@H]1C(=O)N[C@@H](CO)C(=O)N[C@@H](CO)C(=O)NCC(=O)N[C@@H](CCCCN)C(=O)N1CCC[C@H]1C(=O)N1CCC[C@H]1C(=O)N1CCC[C@H]1C(=O)N[C@@H](CO)C(N)=O)C(C)C [Compound A85] (H-YSHGTFTSDYSKYLD[Aib]KRAQEFV[Aib]WLEDEPSSGKPPPS-NH2; N-terminus assumed)
> 1 nM | CC(C)C[C@H](NC(=O)[C@H](Cc1ccc(O)cc1)NC(=O)[C@H](CCCCN)NC(=O)[C@H](CO)NC(=O)[C@H](Cc1ccc(O)cc1)NC(=O)[C@H](CC(=O)O)NC(=O)[C@H](CO)NC(=O)[C@@H](NC(=O)[C@H](Cc1ccccc1)NC(=O)[C@@H](NC(=O)CNC(=O)[C@H](Cc1c[nH]cn1)NC(=O)[C@H](CO)NC(=O)[C@@H](N)Cc1ccc(O)cc1)[C@@H](C)O)[C@@H](C)O)C(=O)N[C@@H](CC(=O)O)C(=O)NC(C)(C)C(=O)N[C@@H](CCCCN)C(=O)N[C@@H](CCCNC(=N)N)C(=O)N[C@@H](C)C(=O)N[C@@H](CCC(N)=O)C(=O)N[C@@H](CCC(=O)O)C(=O)N[C@@H](Cc1ccccc1)C(=O)N[C@H](C(=O)NC(C)(C)C(=O)N[C@@H](Cc1c[nH]cn1)C(=O)N[C@@H](CC(C)C)C(=O)N[C@@H](CCC(=O)O)C(=O)N[C@@H](CC(=O)O)C(=O)N[C@@H](CCC(=O)O)C(=O)N1CCC[C@H]1C(=O)N[C@@H](CO)C(=O)N[C@@H](CO)C(=O)NCC(=O)N[C@@H](CCCCN)C(=O)N1CCC[C@H]1C(=O)N1CCC[C@H]1C(=O)N1CCC[C@H]1C(=O)N[C@@H](CO)C(=O)O)C(C)C [Compound A89] (H-YSHGTFTSDYSKYLD[Aib]KRAQEFV[Aib]HLEDEPSSGKPPPS-OH; N-terminus assumed)
